According to US6833248B2, “Human caspase-12 materials and methods” (Pharmacia & Upjohn Company, priority 2000, dated 2004):
Residues, ends and D or L forms follow the SMILES beside them. *: point of attachment. Cbz = O=C(OCc1ccccc1)*; CH2F = FC*

What was measured:
[1] = system: endogenous human caspase-12; experiment: Induction of endogenous caspase-12 protein by ER stress-inducing agents in SH-EP cells (Western blot); assay type: cell-based
Method: Reports in the literature indicated a strong activation of murine caspase-12 in response to agents which induce an endoplasmic reticulum (ER) stress response, such as tunicamycin or the Ca^2+ ionophore A23187. The activation of endogenous human caspase-12 by these ER stress-inducing agents in SH-EP and HEK293 cells was evaluated by Western blot analysis of cell lysates. SH-EP is a neuroblastoma cell line that endogenously expresses human caspase-12 at detectable levels. HEK293 is a transformed kidney cell line that lacks detectable caspase-12.
Cell cultures were treated with 1 μg/ml tunicamycin or 2 μM A23187 (Calbiochem) and harvested over time. Cells were lysed in detergent buffer, cellular proteins resolved on NuPAGE gels and subjected to Western blot analysis using the same antibody as in Example 8A above. […] (BACHEM) for 40 hours.
(§1) The biological significance of caspase-12 up-regulation by the ER stress-inducing agent A23187 in apoptosis was further investigated. SH-EP cells were treated with 2 μM A23187 for 40 hours to induce expression of endogenous caspase-12. One control culture was left untreated. Of the four cultures treated with A23187, one culture received 10 μg/ml cycloheximide (CHX) to block new protein synthesis and two cultures were subjected to an apoptotic stimulus, either 250 ng/ml α-Fas antibody for 24 hours or 1200 microjoules UV irradiation. The cultures were harvested after 6.5 hours. Western blot analysis of caspase-12 expression and activation was done as described above in Example 8A, using similar protein loads for each condition tested.

caspase-3 = experiment: Caspase-3 cleavage following UV irradiation in SH-EP cells subjected to ER stress (Western blot); assay type: cell-based; conditions: 2 μM A23187 40 hours
endogenous caspase-12 = experiment: Caspase-12 cleavage/activation in SH-EP cells subjected to ER stress (Western blot); assay type: cell-based, human; conditions: 2 μM A23187 40 hours, harvested 6.5 hours after UV
Method: as §1
Additional experiments of were conducted to evaluate the effect of a caspase or calpain inhibitor on SH-EP cells subjected to ER stress. Z-VAD-fmk (Z=benzyloxycarbonyl group at the N-terminus of Val-Ala-DL-Asp(OMe)-fluoromethylketone; BACHEM) is a general caspase inhibitor that inhibits most of the known caspases, to varying extents. Calpeptin is an inhibitor of calpains, a family of calcium-dependent proteases that proteolyze a variety of cellular proteins. […] Caspase activation was evaluated by Western blot using antibodies to caspase-12 as described above in Example 8A. […]

CNc1ccc2oc(C[C@H]3O[C@@]4(CC[C@H]3C)O[C@H]([C@H](C)C(=O)c3ccc[nH]3)[C@H](C)C[C@H]4C)nc2c1C(=O)O [A23187]
Induction of caspase-12 protein ([1]; SH-EP cells, 2 μM A23187, harvested over time): strong induction | Expression of caspase-12 ([1]; SH-EP cells, 2 μM A23187 for 40 hours): induced

C[C@@H]1C[C@@H]([C@H](O)CC2CC(=O)NC(=O)C2)C(=O)[C@@H](C)C1 [cycloheximide]
A23187-induced expression of caspase-12 ([1]; SH-EP cells, 2 μM A23187 for 40 hours plus 10 μg/ml cycloheximide): inhibited

CCCC[C@@H](C=O)NC(=O)[C@H](CC(C)C)NC(=O)OCc1ccccc1 [calpeptin]
Cleavage of caspase-3 following UV irradiation (caspase-3; 10 μM calpeptin): not affected | Cleavage of procaspase-12 after UV irradiation (endogenous caspase-12; pre-incubated with 10 μM calpeptin 1 hour prior to UV): reduced

β-amyloid [25-35]: β-amyloid [25-35] (BACHEM) (GSNKGAIIGLM; Amyloid-beta protein 42; UniProt P05067 696-706, looked up, fragment)
Induction of human caspase-12 ([1]; cultures treated with 40 μM β-amyloid [25-35] for 40 hours): induction of human caspase-12 was observed

COC(=O)C[C@H](NC(=O)[C@H](C)NC(=O)[C@@H](NC(=O)OCc1ccccc1)C(C)C)C(=O)CF [Z-VAD-fmk] (Cbz-Val-Ala-Asp(OMe)-CH2F)
Cleavage of caspase-3 following UV irradiation (caspase-3; 50 μM Z-VAD-fmk): inhibited | Cleavage of pro-caspase-12 after UV irradiation (endogenous caspase-12; pre-incubated with 50 μM Z-VAD-fmk 1 hour prior to UV): reduces cleavage
